According to ChEMBL document CHEMBL1201862, “PubChem BioAssay data set” (2004):
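Interpolation was linear, between the two tested concentrations surrounding the appropriate level; five concentrations were tested over 48 hours in 96-well plates. GI50 is the concentration that inhibits growth by half.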 Active and inactive are the calls of the source. Rule as the data show it: active = GI50 up to about 1.1 µM and inactive = higher.

Experiments:
Experiment in all cases: growth of human tumour cells (NCI), 48 h
[1] = test system: 786-0
[2] = test system: A498
[3] = test system: A549
[4] = test system: ACHN
[5] = test system: BT-549
[6] = test system: CAKI-1
[7] = test system: CCRF-CEM
[8] = test system: COLO 205
[9] = test system: DU-145
[10] = test system: EKVX
[11] = test system: HCC 2998
[12] = test system: HCT-116
[13] = test system: HCT-15
[14] = test system: HL-60
[15] = test system: HOP-62
[16] = test system: HOP-92
[17] = test system: HT-29
[18] = test system: IGROV-1
[19] = test system: K562
[20] = test system: KM12
[21] = test system: LOX IMVI
[22] = test system: M14
[23] = test system: MCF7
[24] = test system: MDA-MB-231
[25] = test system: MDA-MB-435
[26] = test system: MDA-N
[27] = test system: MOLT-4
[28] = test system: NCI-H226
[29] = test system: NCI-H23
[30] = test system: NCI-H460
[31] = test system: NCI-H522
[32] = test system: NCI/ADR-RES
[33] = test system: OVCAR-3
[34] = test system: OVCAR-4
[35] = test system: OVCAR-5
[36] = test system: OVCAR-8
[37] = test system: PC-3
[38] = test system: RPMI-8226
[39] = test system: RXF 393
[40] = test system: SF-268
[41] = test system: SF-295
[42] = test system: SK-MEL-28
[43] = test system: SK-MEL-2
[44] = test system: SK-MEL-5
[45] = test system: SK-OV-3
[46] = test system: SN12C
[47] = test system: SNB-19
[48] = test system: SNB-75
[49] = test system: SR
[50] = test system: SW-620
[51] = test system: T47D
[52] = test system: TK-10
[53] = test system: U-251
[54] = test system: UACC-257
[55] = test system: UACC-62
[56] = test system: UO-31
[57] = test system: Hs-578T
[58] = test system: Malme-3M

CN1C(=O)[C@@]2(C=CC3(CC2)OCCO3)c2ccccc21
GI50 [1]: > 50 µM (inactive) | GI50 [2]: > 50 µM (inactive) | GI50 [3]: > 50 µM (inactive) | GI50 [4]: 49.5 µM (inactive) | GI50 [5]: > 50 µM (inactive) | GI50 [6]: > 50 µM (inactive) | GI50 [7]: > 50 µM (inactive) | GI50 [8]: > 50 µM (inactive) | GI50 [9]: > 50 µM (inactive) | GI50 [10]: 49.2 µM (inactive) | GI50 [11]: > 50 µM (inactive) | GI50 [12]: > 50 µM (inactive) | GI50 [13]: > 48.2 µM | GI50 [14]: 35.7 µM (inactive) | GI50 [15]: > 32.1 µM (inactive) | GI50 [16]: > 50 µM (inactive) | GI50 [17]: > 50 µM (inactive) | GI50 [18]: 0.48 µM (active) | GI50 [19]: > 50 µM (inactive) | GI50 [20]: > 37.5 µM (inactive) | GI50 [21]: > 50 µM (inactive) | GI50 [22]: > 50 µM (inactive) | GI50 [23]: 48.5 µM (inactive) | GI50 [24]: > 50 µM (inactive) | GI50 [25]: > 45 µM (inactive) | GI50 [26]: > 50 µM (inactive) | GI50 [27]: > 46.3 µM (inactive) | GI50 [28]: > 50 µM (inactive) | GI50 [29]: 21.8 µM (inactive) | GI50 [30]: > 50 µM (inactive) | GI50 [31]: 8.53 µM (inactive) | GI50 [32]: > 50 µM (inactive) | GI50 [33]: > 50 µM (inactive) | GI50 [34]: > 50 µM (inactive) | GI50 [35]: > 50 µM (inactive) | GI50 [36]: > 50 µM (inactive) | GI50 [37]: > 45.4 µM (inactive) | GI50 [38]: > 50 µM (inactive) | GI50 [39]: > 50 µM (inactive) | GI50 [40]: 10.3 µM (inactive) | GI50 [41]: > 50 µM (inactive) | GI50 [42]: > 50 µM (inactive) | GI50 [43]: > 50 µM (inactive) | GI50 [44]: > 50 µM (inactive) | GI50 [45]: > 50 µM (inactive) | GI50 [46]: > 50 µM (inactive) | GI50 [47]: > 50 µM (inactive) | GI50 [48]: > 25.9 µM (inactive) | GI50 [49]: > 50 µM (inactive) | GI50 [50]: > 50 µM (inactive) | GI50 [51]: 35 µM (inactive) | GI50 [52]: > 50 µM (inactive) | GI50 [53]: > 50 µM (inactive) | GI50 [54]: > 50 µM (inactive) | GI50 [55]: > 50 µM (inactive) | GI50 [56]: > 50 µM (inactive)

COc1ccc(-c2csc(-n3c(-c4ccccc4)nc4c(Br)cc(Br)cc4c3=O)n2)cc1
GI50 [1]: 22.9 µM (inactive) | GI50 [2]: 15.5 µM (inactive) | GI50 [3]: 25.5 µM (inactive) | GI50 [4]: 25.1 µM (inactive) | GI50 [5]: 17.8 µM (inactive) | GI50 [6]: 35.7 µM (inactive) | GI50 [7]: 13.1 µM (inactive) | GI50 [8]: 37 µM (inactive) | GI50 [9]: 39.2 µM (inactive) | GI50 [10]: 4.52 µM (inactive) | GI50 [11]: 28.1 µM (inactive) | GI50 [12]: 22.5 µM (inactive) | GI50 [13]: 19.3 µM | GI50 [14]: 20.2 µM (inactive) | GI50 [15]: 40.1 µM (inactive) | GI50 [16]: 5.14 µM (inactive) | GI50 [17]: 26.7 µM (inactive) | GI50 [57]: 41 µM (inactive) | GI50 [18]: 2.92 µM (inactive) | GI50 [19]: 20.8 µM (inactive) | GI50 [20]: 33.6 µM (inactive) | GI50 [21]: 29.9 µM (inactive) | GI50 [22]: 29.4 µM (inactive) | GI50 [23]: 35.1 µM (inactive) | GI50 [24]: 28.5 µM (inactive) | GI50 [25]: 38.3 µM (inactive) | GI50 [26]: 25.4 µM (inactive) | GI50 [27]: 17.8 µM (inactive) | GI50 [58]: 26 µM (inactive) | GI50 [28]: 27.7 µM (inactive) | GI50 [29]: 14.4 µM (inactive) | GI50 [30]: 34.2 µM (inactive) | GI50 [31]: 19.8 µM (inactive) | GI50 [32]: 19.6 µM (inactive) | GI50 [33]: 25.2 µM (inactive) | GI50 [34]: 63.2 µM (inactive) | GI50 [35]: 20.9 µM (inactive) | GI50 [36]: 26.7 µM (inactive) | GI50 [37]: 25.8 µM (inactive) | GI50 [38]: 7.74 µM (inactive) | GI50 [39]: 26.3 µM (inactive) | GI50 [40]: 15.6 µM (inactive) | GI50 [41]: 25.2 µM (inactive) | GI50 [42]: 23.2 µM (inactive) | GI50 [43]: 47.2 µM (inactive) | GI50 [44]: 18.2 µM (inactive) | GI50 [45]: 28.1 µM (inactive) | GI50 [47]: 34 µM (inactive) | GI50 [48]: 31.3 µM (inactive) | GI50 [50]: 33.6 µM (inactive) | GI50 [52]: 51.5 µM (inactive) | GI50 [53]: 28.7 µM (inactive) | GI50 [54]: 30.3 µM (inactive) | GI50 [55]: 28.5 µM (inactive) | GI50 [56]: 23.4 µM (inactive)
